Measured values as given in ChEMBL document CHEMBL3259643 (Eur J Med Chem, 2014).
pIC50: −log10 of the molar value. The source made the active and inactive calls. The calls are words filed in the database; no cut-off is given here.

Experiments:
MDCK = experiment: Cytotoxicity against MDCK cells at >10 uM after 48 to 72 hrs; assay type: cell-based, Canis lupus familiaris; conditions: dog
HEK-293T = experiment: Cytotoxicity against human 293T cells at >10 uM after 48 to 72 hrs; assay type: cell-based
[1] = First order rate constant associated with the terminal portion of the curve in ICR mouse at 0.25 mg/kg, iv; assay type: ADME, organism-based; design: dose 0.25 mg/kg, route intravenous; conditions: in vivo
[2] = Apparent octanol-phosphate buffer partition coefficient, log D of the compound at 1 mg at pH 7.4 after 24 hrs by HPLC analysis; assay type: physicochemical
[3] = Apparent total clearance in ICR mouse at 10 mg/kg; assay type: ADME, organism-based; design: dose 10 mg/kg; conditions: in vivo, read-out: CLt/F (converted)
[4] = system: Influenza A virus (A/WSN/1933(H1N1)); experiment: Antiviral activity against Influenza A virus (A/WSN/1933(H1N1)) infected in BALB/c mouse assessed as increase in survival rate at 0.12 umol/kg/day administered on day 0 intranasally bid prior to viral infection continued for day 1 to day 4 measured on day 9; assay type: functional
Neuraminidase = Neuraminidase (Influenza A virus, UniProt B4URF0); design: species or system Influenza A virus (A/WSN/1933(H1N1))
[5] = Terminal half life in ICR mouse at 0.25 mg/kg, iv; assay type: ADME, organism-based; design: dose 0.25 mg/kg, route intravenous; conditions: in vivo, read-out: beta t1/2 (converted)
Mus musculus = experiment: Bioavailability in ICR mouse at 0.25 mg/kg, iv; assay type: ADME, organism-based; conditions: in vivo
[6] = Cellular uptake in MDCK2 cells measured per mg of protein at 100 ug/mL after 120 mins by HPLC analysis; assay type: ADME, cell-based, Canis lupus familiaris; conditions: dog, mdck-ii, 2 h
[7] = AUC (0 to infinity) in ICR mouse at 0.25 mg/kg, iv; assay type: ADME, organism-based; design: time infinity, dose 0.25 mg/kg, route intravenous; conditions: plasma
[8] = AUC (0 to infinity) in ICR mouse at 10 mg/kg, po; assay type: ADME, organism-based; design: time infinity, dose 10 mg/kg, route oral; conditions: plasma
[9] = system: Influenza A virus (A/WSN/1933(H1N1)); experiment: Antiviral activity against Influenza A virus (A/WSN/1933(H1N1)) infected in BALB/c mouse assessed as increase in survival rate at 1.2 umol/kg/day administered on day 0 intranasally bid prior to viral infection continued for day 1 to day 4 measured on day 14; assay type: functional
[10] = AUC (0 to 2 hrs) in ICR mouse at 0.25 mg/kg, iv; assay type: ADME, organism-based; design: time < 2 hr, dose 0.25 mg/kg, route intravenous; conditions: plasma
[11] = system: Influenza A virus (A/WSN/1933(H1N1)); experiment: Antiviral activity against Influenza A virus (A/WSN/1933(H1N1)) infected in BALB/c mouse assessed as increase in survival rate at 2.6 umol/kg/day, po bid administered on day 0 prior to viral infection continued for day 1 to day 4 measured on day 14; assay type: functional, organism-based
[12] = First order rate constant associated with the terminal portion of the curve in ICR mouse at 10 mg/kg, po; assay type: ADME, organism-based; design: dose 10 mg/kg, route oral; conditions: in vivo
[13] = Tmax in ICR mouse at 10 mg/kg; assay type: ADME, organism-based; design: dose 10 mg/kg; conditions: in vivo
[14] = Oral bioavailability in ICR mouse at 10 mg/kg; assay type: ADME, organism-based; conditions: in vivo
[15] = Cmax in ICR mouse at 10 mg/kg; assay type: ADME, organism-based; design: dose 10 mg/kg; conditions: in vivo
Caco-2 = experiment: Permeability across apical to basolateral side in human Caco2 cells at 100 ug/mL after 15 to 120 mins by HPLC analysis; assay type: ADME, cell-based
[16] = AUC (0 to 12 hrs) in ICR mouse at 10 mg/kg, po; assay type: ADME, organism-based; design: time < 12 hr, dose 10 mg/kg, route oral; conditions: plasma
[17] = Terminal half life in ICR mouse at 10 mg/kg, po; assay type: ADME, organism-based; design: dose 10 mg/kg, route oral; conditions: in vivo, read-out: beta t1/2 (converted)

Sequence of Neuraminidase (B4URF0 whole entry): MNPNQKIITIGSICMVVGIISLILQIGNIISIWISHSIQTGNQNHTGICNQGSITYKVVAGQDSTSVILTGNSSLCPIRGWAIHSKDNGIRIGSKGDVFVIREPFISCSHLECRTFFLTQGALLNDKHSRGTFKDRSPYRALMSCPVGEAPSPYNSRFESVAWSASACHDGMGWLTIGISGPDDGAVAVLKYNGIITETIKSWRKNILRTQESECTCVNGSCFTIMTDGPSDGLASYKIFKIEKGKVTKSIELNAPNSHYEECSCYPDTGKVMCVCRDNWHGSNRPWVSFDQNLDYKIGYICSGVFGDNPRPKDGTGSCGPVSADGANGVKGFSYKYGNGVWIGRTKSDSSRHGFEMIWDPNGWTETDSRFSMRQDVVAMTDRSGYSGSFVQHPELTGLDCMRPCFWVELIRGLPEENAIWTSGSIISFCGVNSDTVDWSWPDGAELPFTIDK

Row | Structure (SMILES) | Activity (MDCK) | Activity (HEK-293T) | logD at 24 h [2] | Activity [4] | pIC50 (Neuraminidase) | Activity [11] | also measured
1 | CCOP(=O)(O)C1=C[C@@H](OC(CC)CC)[C@H](NC(C)=O)[C@@H](N)C1 [TAMIPHOSPHOR MONOETHYL ESTER] | Non-toxic | Non-toxic | – | – | – | – | –
2 | CCCCCCOP(=O)(O)C1=C[C@@H](OC(CC)CC)[C@H](NC(C)=O)[C@@H](NC(=N)N)C1 | Non-toxic | Non-toxic | 0.63 | Active | 8.39 | Active | k el [1]: 0.000533 s⁻¹; CL/F [3]: 184 mL/min/kg; half-life [5]: 0.36 h; F (Mus musculus): 100%; Drug uptake [6]: 13500 ng; AUC(0-inf) [7]: 173 ng·h/mL; AUC(0-inf) [8]: 867 ng·h/mL; Activity [9]: Active; AUC(0-t) at 2 h [10]: 169 ng·h/mL; k el [12]: 0.000167 s⁻¹; Tmax [13]: 1 h; bioavailability [14]: 12.6%; Cmax [15]: 261 ng/mL; permeability (Caco-2): permeable; AUC(0-t) at 12 h [16]: 361 ng·h/mL; half-life [17]: 1.07 h
3 | CCC(CC)O[C@@H]1C=C(P(=O)(O)OCCCc2c[nH]c3ccccc23)C[C@H](N)[C@H]1NC(C)=O | Non-toxic | Non-toxic | – | – | 8.77 | – | –
4 | CCC(CC)O[C@@H]1C=C(P(=O)(O)OCCCc2ccccc2)C[C@H](NC(=N)N)[C@H]1NC(C)=O | Non-toxic | Non-toxic | 0.66 | Active | 8.49 | Active | Drug uptake [6]: < 2000 ng; Activity [9]: Active
5 | CCOP(=O)(O)C1=C[C@@H](OC(CC)CC)[C@H](NC(C)=O)[C@@H](NC(=N)N)C1 [TAMIPHOSPHOR MONOETHYL ESTER] | – | – | – | Active | – | Active | Activity [9]: Active
6 | CCC(CC)O[C@@H]1C=C(P(=O)(O)OCCCc2ccccc2)C[C@H](N)[C@H]1NC(C)=O | Non-toxic | Non-toxic | 0.28 | – | 8.74 | – | –
7 | CCOC(=O)C1=C[C@@H](OC(CC)CC)[C@H](NC(C)=O)[C@@H](N)C1 | – | – | – | – | – | Active | –
8 | CCCCOP(=O)(O)C1=C[C@@H](OC(CC)CC)[C@H](NC(C)=O)[C@@H](NC(=N)N)C1 | Non-toxic | Non-toxic | -0.16 | – | 8.17 | – | –
9 | CCCCCCOP(=O)(O)C1=C[C@@H](OC(CC)CC)[C@H](NC(C)=O)[C@@H](N)C1 | Non-toxic | Non-toxic | 0.3 | – | 8.66 | – | –
10 | CCCCOP(=O)(O)C1=C[C@@H](OC(CC)CC)[C@H](NC(C)=O)[C@@H](N)C1 | Non-toxic | Non-toxic | -0.29 | – | 8.16 | – | –
11 | CC(=O)N[C@H]1[C@H]([C@H](O)[C@H](O)CO)OC(C(=O)O)=C[C@@H]1NC(=N)N | – | – | – | inactive | – | – | –
